Reference: PubChem BioAssay (NCI)
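Where inhibition never reached the appropriate level, the endpoint shown equals the highest concentration tested. Otherwise, values were interpolated linearly from a five-concentration, 48-hour dose response in 96-well plates. TGI marks complete inhibition of growth.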

Legend:
Assay in all cases: growth of human tumour cells (NCI), 48 h
[1] = system: 786-0 renal
[2] = system: A498 renal
[3] = system: A549 NSCLC
[4] = system: ACHN renal
[5] = system: BT-549 breast
[6] = system: CAKI-1 renal
[7] = system: CCRF-CEM leukemia
[8] = system: COLO 205 colon
[9] = system: DU-145 prostate
[10] = system: EKVX NSCLC
[11] = system: HCC-2998 colon
[12] = system: HCT-116 colon
[13] = system: HCT-15 colon
[14] = system: HL-60(TB) leukemia
[15] = system: HOP-62 NSCLC
[16] = system: HS 578T breast
[17] = system: HT29 colon
[18] = system: IGROV1 ovarian
[19] = system: K-562 leukemia
[20] = system: KM12 colon
[21] = system: M14 melanoma
[22] = system: MALME-3M melanoma
[23] = system: MCF7 breast
[24] = system: MDA-MB-231 breast
[25] = system: MDA-MB-435
[26] = system: MDA-N
[27] = system: MOLT-4 leukemia
[28] = system: NCI-H226 lung
[29] = system: NCI-H23 lung
[30] = system: NCI-H522 lung
[31] = system: NCI/ADR-RES ovarian
[32] = system: OVCAR-3 ovarian
[33] = system: OVCAR-4 ovarian
[34] = system: OVCAR-5 ovarian
[35] = system: OVCAR-8 ovarian
[36] = system: PC-3 prostate
[37] = system: RPMI-8226 leukemia
[38] = system: RXF 393 renal
[39] = system: SF-268 CNS
[40] = system: SF-295 CNS
[41] = system: SK-MEL-2 melanoma
[42] = system: SK-MEL-28 melanoma
[43] = system: SK-MEL-5 melanoma
[44] = system: SK-OV-3 ovarian
[45] = system: SN12C renal
[46] = system: SNB-19 CNS
[47] = system: SNB-75 CNS
[48] = system: SW-620 colon
[49] = system: T-47D breast
[50] = system: TK-10 renal
[51] = system: U251 CNS
[52] = system: UACC-257 melanoma
[53] = system: UACC-62 melanoma
[54] = system: UO-31 renal
[55] = system: HOP-92 NSCLC
[56] = system: LOX IMVI melanoma
[57] = system: NCI-H460 lung
[58] = system: SF-539 CNS
[59] = system: SR leukemia

Compound: Clc1nc2n(c1/C=C/c1cccs1)CCS2
- TGI [1]: 95.5 µM
- TGI [2]: 57.9 µM
- TGI [3]: > 100 µM
- TGI [4]: > 100 µM
- TGI [5]: 90.4 µM
- TGI [6]: 55.2 µM
- TGI [7]: 46.6 µM
- TGI [8]: > 100 µM
- TGI [9]: > 100 µM
- TGI [10]: > 100 µM
- TGI [11]: > 100 µM
- TGI [12]: > 100 µM
- TGI [13]: > 100 µM
- TGI [14]: > 100 µM
- TGI [15]: > 100 µM
- TGI [16]: > 100 µM
- TGI [17]: 96.6 µM
- TGI [18]: > 100 µM
- TGI [19]: > 100 µM
- TGI [20]: > 100 µM
- TGI [21]: > 100 µM
- TGI [22]: > 100 µM
- TGI [23]: > 100 µM
- TGI [24]: 48.8 µM
- TGI [25]: > 100 µM
- TGI [26]: > 100 µM
- TGI [27]: 35.2 µM
- TGI [28]: > 100 µM
- TGI [29]: > 100 µM
- TGI [30]: > 100 µM
- TGI [31]: > 100 µM
- TGI [32]: 87.9 µM
- TGI [33]: > 100 µM
- TGI [34]: > 100 µM
- TGI [35]: > 100 µM
- TGI [36]: > 100 µM
- TGI [37]: 48.7 µM
- TGI [38]: > 100 µM
- TGI [39]: > 100 µM
- TGI [40]: > 100 µM
- TGI [41]: > 100 µM
- TGI [42]: > 100 µM
- TGI [43]: 32.9 µM
- TGI [44]: 95.8 µM
- TGI [45]: > 100 µM
- TGI [46]: > 100 µM
- TGI [47]: > 100 µM
- TGI [48]: > 100 µM
- TGI [49]: 69.3 µM
- TGI [50]: > 100 µM
- TGI [51]: > 100 µM
- TGI [52]: > 100 µM
- TGI [53]: > 100 µM
- TGI [54]: > 100 µM

Compound: C=C(Cl)C(=C)CCC(Cl)C(C)C (centres undefined)
- TGI [1]: > 100 µM
- TGI [2]: > 100 µM
- TGI [3]: > 100 µM
- TGI [4]: > 100 µM
- TGI [5]: > 100 µM
- TGI [6]: > 100 µM
- TGI [7]: > 100 µM
- TGI [8]: > 100 µM
- TGI [9]: > 100 µM
- TGI [10]: > 100 µM
- TGI [11]: > 100 µM
- TGI [12]: > 100 µM
- TGI [14]: > 100 µM
- TGI [15]: > 100 µM
- TGI [55]: > 100 µM
- TGI [16]: > 100 µM
- TGI [17]: > 100 µM
- TGI [18]: > 100 µM
- TGI [19]: > 100 µM
- TGI [20]: > 100 µM
- TGI [56]: > 100 µM
- TGI [21]: > 100 µM
- TGI [22]: > 100 µM
- TGI [23]: > 100 µM
- TGI [24]: > 100 µM
- TGI [25]: > 100 µM
- TGI [26]: > 100 µM
- TGI [27]: > 100 µM
- TGI [28]: > 100 µM
- TGI [29]: > 100 µM
- TGI [57]: > 100 µM
- TGI [30]: > 100 µM
- TGI [31]: > 100 µM
- TGI [32]: > 100 µM
- TGI [33]: > 100 µM
- TGI [34]: > 100 µM
- TGI [36]: > 100 µM
- TGI [37]: > 100 µM
- TGI [38]: > 100 µM
- TGI [39]: > 100 µM
- TGI [40]: > 100 µM
- TGI [58]: > 100 µM
- TGI [41]: > 100 µM
- TGI [42]: > 100 µM
- TGI [43]: > 100 µM
- TGI [44]: > 100 µM
- TGI [45]: > 100 µM
- TGI [46]: > 100 µM
- TGI [59]: > 100 µM
- TGI [48]: > 100 µM
- TGI [50]: > 100 µM
- TGI [51]: > 100 µM
- TGI [52]: > 100 µM
- TGI [53]: > 100 µM
- TGI [54]: > 100 µM
